Values quoted from earlier work, collected in patent US20090311335A1, “COMBINATION OF A TRIPTAN AND AN NSAID” (priority 2008, published 2009).

How the values were obtained:
[1] = single intravenous dose, range 5 to 60 mg
[2] = oral 75 mg or 150 mg, dual-release formulation

Row | dose proportionality of pharmacokinetics [1] | solubility in methanol (methanol) | solubility in strong acids and bases (strong acids and bases) | solubility in water (water) | Structure (SMILES) | efficacy and tolerability in acute treatment of migraine attacks [2]
1 | dose-proportional | very slightly soluble | higher solubility | practically insoluble | Cc1cnc(NC(=O)C2=C(O)c3ccccc3S(=O)(=O)N2C)s1 [Meloxicam, 4-hydroxy-2-methyl-N-(5-methyl-2-thiazolyl-)-2-H-1,2-benzothiazine-3-carboxamide 1,1-dioxide] | 
2 |  |  |  |  | CC(C(=O)O)c1cccc(C(=O)c2ccccc2)c1 (centres unmarked) [ketoprofen] | effective and well-tolerated
